From patent publication US7087430B2, “Human VNO cDNA libraries” (Pherin Pharmaceuticals, Inc., priority 2000, dated 2006)

What was measured:
female human VNO cell = experiment: Electrophysiological membrane currents in cultured human VNO cells; assay type: cell-based
From the text: FIG. 1 is an electrophysiological trace showing the effects of pertussis toxin on membrane currents induced by a vomeropherin.
FIG. 1C indicates when the cells were exposed to ADO (i.e., ADO pulses).
PTX uncouples receptors from their heterotrimeric G proteins and thereby blocks signal transduction. Sensitivity to PTX is an accepted marker for pathways involving G protein-coupled receptors that decrease intracellular CAMP, regulate ion channels or activate phospholipases (i.e., couple to Gi or G0). (For a review, see Simon et al., (1991) Science 252:802–808.) We have also implicated a specific type of ion channel in the response of human VNO cells to vomeropherins. […] However, as noted above, cultured VNO cells are of limited value as a screening tool due to the need to continually isolate new cells. Thus, construction of a cDNA library was desired in order to clone and express pheromone receptors in a cell line.
As noted above, […] data (FIG. 1) indicate that cells isolated from the VNO of human volunteers respond electrophysiologically to a vomeropherin via a PTX-sensitive pathway, a hallmark of G protein-coupled receptor signaling. Thus, we anticipated that components of the pathway such as G proteins (e.g., Gi and G0), adenylyl cyclase (e.g., type 3 and 7), and various ion channels are expressed in these cells. We assayed for expression of these proteins in the VNO by screening our library for cDNA clones of the corresponding mRNAs. Knowledge of the signaling components expressed in VNO neurons is essential to express the receptors functionally in tissue culture cells for high throughput drug screening assays.

human VNO = details: cited from earlier work
human brain = details: human volunteers, delivered non-specifically to the nasal cavity, no detectable odor (Sobel et al. 1999); cited from earlier work

## C[C@@]12C=CC[C@H]1[C@@H]1CCC3=CC(=O)CC[C@]3(C)[C@H]1CC2 [androstadienone, androsta-4,16-dien-3-one]
Female human VNO cell; 10^−7M, human VNO cell, FIG. 1A
  inward membrane currents induced by vomeropherin: inward currents induced
Human VNO
  physiological responses on administration to the human VNO: induce bradycardia, bradypnea, increases in core body temperature, and other physiological responses

## C[C@@]12C=CC[C@H]1[C@@H]1CCc3cc(O)ccc3[C@H]1CC2 [estra-1,3,5(10),16-tetraen-3-ol]
Human VNO
  physiological responses on administration to the human VNO: induce bradycardia, bradypnea, increases in core body temperature, and other physiological responses

## CC(=O)Oc1ccc2c(c1)CC[C@@H]1[C@@H]2CC[C@]2(C)C=CC[C@@H]12 [estra-1,3,5(10),16-tetraen-3yl acetate]
Human brain
  brain activation by fMRI: dose-dependent activation of the anterior medial thalamus, the inferior frontal gyrus, and other regions of the human brain
Human VNO; human subjects, VNO versus olfactory or respiratory epithelium (Monti-Bloch et al. 1994)
  physiological responses in vivo by site of application: induces physiological responses in vivo only when applied specifically to the VNO

## pertussis toxin
Female human VNO cell; cell incubated with 100 ng/ml PTX, FIG. 1B
  effect on ADO-induced inward currents: blocking the inward currents
Female human VNO cell; cultured human VNO neuroepithelial cells, FIG. 1
  effect on electrophysiological response to a vomeropherin: blocks the electrophysiological response to a vomeropherin
